Assays:
Conditions in all cases: 48 h
NCI-H295R [1] = test: AC50 viability; higher = less potent
In short: (§1)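 Luminescence from CellTiter-Glo, read after 48 h, measured three adrenocortical carcinoma cell lines treated in 1,536-well plates with library compounds at 11 concentrations. Values were normalised per plate to vehicle and empty-well controls. The AC50 and area under the curve come from fitted concentration-response curves in inhibitory or non-responding classes only.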

CU-ACC1 [2] = test: AC50 viability; higher = less potent
In short: as §1

CU-ACC2 [3] = test: AC50 viability; higher = less potent
In short: as §1

NCI-H295R [4] = test: area under concentration-response curve (viability) (AUC (a.u.)); higher = less active
In short: as §1

CU-ACC1 [5] = test: as above
In short: as §1

CU-ACC2 [6] = test: as above
In short: as §1

| SMILES | AC50 viability (NCI-H295R [1]) | AC50 viability (CU-ACC1 [2]) | AC50 viability (CU-ACC2 [3]) | area under concentration-response curve (NCI-H295R [4]) | area under concentration-response curve (CU-ACC1 [5]) | area under concentration-response curve (CU-ACC2 [6]) |
| --- | --- | --- | --- | --- | --- | --- |
| COc1ccc(Nc2cc(-c3cnc(N)nc3)nc(N3CCOCC3)n2)cn1 | 1.66 µM | 1.05 µM | 1.05 µM | 392 | 413 | 493 |
| CC1(N2CCC(n3c([C@@H]4CCCNC4)nc4ccccc43)CC2)CCCCCCC1 | 11.8 µM | 10.5 µM | 13.2 µM | 439 | 470 | 562 |
| CNC(=O)c1cc(COc2nnc(Nc3ccc(Cl)cc3)c3ccoc23)ccn1 | 5.25 µM | 1.86 µM | 8.33 µM | 423 | 419 | 462 |
| CC[C@H](CC#N)OC(=O)N[C@@H](C)c1cccc(NC(=O)Nc2ccc(-c3cnco3)c(OC)c2)c1 | 2.09 µM | 5.9 µM | 5.9 µM | 489 | 456 | 530 |
| CC(C)[C@@H](N(CCCN)C(=O)C1=CC=C(C)C=C1)C/2=C(\CC3=CC=CC=C3)C(=O)C4=C(O2)C=C(Cl)C=C4 | 2.35 µM | 13.2 µM | 26.3 µM | 359 | 448 | 565 |
| CCCCC(=O)OCC(=O)[C@]1(O)Cc2c(O)c3c(c(O)c2[C@@H](O[C@H]2C[C@H](NC(=O)C(F)(F)F)[C@H](O)[C@H](C)O2)C1)C(=O)c1c(OC)cccc1C3=O | 16.6 µM | 7.42 µM | 9.34 µM | 537 | 373 | 544 |
| C[C@@H]1CN[C@H]2[C@@H](C)[C@@]3(CC[C@H]4[C@@H]5CC[C@@H]6C[C@@H](CC[C@]6(C)[C@H]5C\C4=C(C)\C3)N[S+](C)([O-])=O)O[C@@H]2C1 | 14.8 µM | 16.6 µM | 20.9 µM | 504 | 467 | 539 |
| CN[C@@H]1C[C@H]2O[C@@](C)([C@@H]1OC)n1c3ccccc3c3c4c(c5c6ccccc6n2c5c31)C(=O)N[C@H]4O | 0.959 µM | 0.762 µM | 0.34 µM | 269 | 301 | 209 |
| CCC1=C2C=C(OC(=O)N3CCC(CC3)N4CCCCC4)C=CC2=NC\5=C1CN6C(=O)\C7=C(/C=C56)[C@@](O)(CC)C(=O)OC7 | 13.2 µM | 13.2 µM | 2.95 µM | 443 | 382 | 426 |
| c1ccc(-c2ccc(CNc3nc(-c4ccccn4)nnc3-c3ccccc3)cc2)cc1 | 4.17 µM | 2.35 µM | 14.8 µM | 461 | 385 | 504 |
| C[C@H](NC(=O)C(=O)Nc1ccccc1C(C)(C)C)C(=O)N[C@@H](CC(=O)O)C(=O)COc1c(F)c(F)cc(F)c1F | 1.05 µM | 1.66 µM | 0.661 µM | 203 | 328 | 235 |
| Clc1ccc(C2(c3ccc(-c4cn[nH]c4)cc3)CCNCC2)cc1 | 18.6 µM | 18.6 µM | 23.5 µM | 399 | 419 | 423 |
| C#Cc1cccc(Nc2ncnc3cc(OC)c(OCCCCCCC(=O)NO)cc23)c1 | 4.68 µM | 4.68 µM | 2.95 µM | 448 | 407 | 450 |
| CCCc1cc(C(=O)N[C@H](Cc2ccc(-c3cccc(OC(F)(F)F)c3)nc2)C(=O)N[C@@H]2CCNC2)sc1C | 18.6 µM | 13.2 µM | 18.6 µM | 469 | 452 | 447 |
| C=CC(=O)Nc1cc2c(Nc3ccc(F)c(Cl)c3)ncnc2cc1OCCCN1CCOCC1 | 14.8 µM | 11.8 µM | 8.33 µM | 427 | 443 | 498 |
| COc1cccc2c1C(=O)c1c(O)c3c(c(O)c1C2=O)C[C@@](O)(C(=O)CO)CC3OC1CC(N2CCOC(OC)C2)C(O)C(C)O1 (stereo partly specified) | 0.0833 µM | 0.0833 µM | 0.059 µM | 282 | 284 | 302 |
| Cc1c[nH]c2nc(Nc3ccc(N4CCN(C)CC4)c(F)c3)nc(-c3cccc(CC#N)c3)c12 | 5.25 µM | 6.61 µM | 4.17 µM | 472 | 457 | 422 |
| Cc1ccc(C(N)=O)cc1Nc1nccc(-c2cn(C(C)C)c3cnccc23)n1 | 16.6 µM | 20.9 µM | 8.33 µM | 522 | 446 | 530 |
| C[S+](=O)([O-])N1CCC(NC(=O)c2[nH]ncc2NC(=O)c2c(Cl)cccc2Cl)CC1 | 14.8 µM | 7.42 µM | 2.63 µM | 426 | 428 | 488 |
| CC1(C)OC/2=C(\[C@H](NCC3=CC=CC=C3)[C@@H]1O)C(=O)C4=CC=CC=C4C2=O | 1.86 µM | 2.35 µM | 18.6 µM | 403 | 381 | 368 |
| O=C1c2c(O)ccc(O)c2C(=O)c2c(NCCNCCO)ccc(NCCNCCO)c21 | 14.8 µM | 16.6 µM | 9.34 µM | 514 | 458 | 512 |
| C[C@H](NC(=O)/C(C#N)=C/c1cccc(Br)n1)c1ccccc1 | 23.5 µM | 20.9 µM | 23.5 µM | 442 | 444 | 526 |
| O=C(NC1CCNCC1)c1n[nH]cc1NC(=O)c1c(Cl)cccc1Cl | 16.6 µM | 9.34 µM | 3.32 µM | 542 | 464 | 512 |
| Nc1ncccc1-c1nc2ccc(-c3ccccc3)nc2n1-c1ccc(C2(N)CCC2)cc1 | 5.9 µM | 8.33 µM | 16.6 µM | 408 | 354 | 437 |
| COC1=CC2=C(C=C1CC3=C(F)C(=CC=C3)Cl)C(=O)\C(=C/N2[C@H](CO)C(C)C)C(O)=O | 20.9 µM | 16.6 µM | 14.8 µM | 509 | 405 | 528 |
| CC(C)c1c2cc(-c3ccnc(N[C@H]4CC[C@H](NC5CCOCC5)CC4)n3)ccc2nn1C | 0.417 µM | 0.372 µM | 0.263 µM | 380 | 333 | 376 |

| SMILES | AC50 viability (NCI-H295R [1]) | AC50 viability (CU-ACC1 [2]) | AC50 viability (CU-ACC2 [3]) | area under concentration-response curve (NCI-H295R [4]) | area under concentration-response curve (CU-ACC1 [5]) | area under concentration-response curve (CU-ACC2 [6]) |
| --- | --- | --- | --- | --- | --- | --- |
| CC(C)N1N/C(=C2\C=c3cc(O)ccc3=N2)c2c(N)ncnc21 | 2.09 µM | 1.66 µM | 2.63 µM | 472 | 401 | 520 |
| N#C/C(=C1/Nc2ccccc2S1)c1ccnc(OCc2ccc(CN3CCOCC3)cc2)n1 | 11.8 µM | 4.68 µM | 18.6 µM | 429 | 434 | 426 |
| CN1CCN(Cc2ccc(NC(=O)Nc3ccc(Oc4cc(NC(=O)C5CC5)ncn4)cc3)cc2C(F)(F)F)CC1 | 2.63 µM | 1.66 µM | 0.468 µM | 428 | 426 | 337 |
| CC(=O)NCC(=O)N1[C@@H]2CC[C@H]1c1ccc(Nc3ncc(C(F)(F)F)c(NC4CCC4)n3)cc12 | 16.6 µM | 18.6 µM | 10.5 µM | 459 | 502 | 443 |
| CC(C)NC(=O)COc1cccc(-c2nc(Nc3ccc4[nH]ncc4c3)c3ccccc3n2)c1 | 9.34 µM | 13.2 µM | 3.72 µM | 523 | 481 | 507 |
| Cc1ccc(NC(=O)Nc2cc(C(F)(F)F)ccc2F)cc1Nc1ccc2c(c1)NC(=O)/C2=C\c1ccc[nH]1 | 13.2 µM | 14.8 µM | 23.5 µM | 476 | 441 | 506 |
| CNc1nc(-c2ccc3c(N)n[nH]c3c2)cc(N2C[C@@H](C(=O)NC3CCCCC3)CC[C@H]2C)n1 | 18.6 µM | 20.9 µM | 20.9 µM | 506 | 458 | 544 |
| C[C@@H]1C[C@H]2[C@@H]3\C=C(C)/C4=C/C5=C(C[C@]4(C)[C@H]3[C@@H](O)C[C@]2(C)[C@@]1(O)C(=O)CO)C=N[N]5C6=CC=CC=C6 | 11.8 µM | 26.3 µM | 23.5 µM | 474 | 435 | 563 |
| CC(C)(C)c1cnc(CSc2cnc(NC(=O)C3CCNCC3)s2)o1 | 7.42 µM | 2.63 µM | 1.48 µM | 387 | 386 | 352 |
| CC[C@@H](C)Nc1cc(C(=O)NC2CC3CC[C@@H](C2)N3c2ccc(C(=O)C3CC3)cn2)c(C)cc1C(N)=O (stereo partly specified) | 0.59 µM | 0.59 µM | 0.118 µM | 408 | 330 | 405 |
| Nc1nc(Nc2ccc([S+](N)(=O)[O-])cc2)nn1C(=O)c1c(F)cccc1F | 20.9 µM | 11.8 µM | 3.32 µM | 488 | 443 | 466 |
| CC(C)C[C@@H](C=O)NC(=O)[C@H](CC(C)C)NC(=O)[C@H](CC(C)C)NC(=O)OCc1ccccc1 | 0.742 µM | 1.48 µM | 0.934 µM | 407 | 374 | 409 |
| COc1cc(C(=O)N2CCC(N3CCN(C)CC3)CC2)ccc1Nc1ncc2c(n1)N(C)c1ccccc1C(=O)N2C | 16.6 µM | 26.3 µM | 20.9 µM | 389 | 377 | 423 |
| C[C@@H]1CN(CC(=O)N2CC(C)(C)c3ncc(Cc4ccc(F)cc4)cc32)[C@@H](CN2CCOC[C@H]2C)CN1 | 20.9 µM | 18.6 µM | 1.32 µM | 462 | 449 | 451 |
| CC(C)(O)CNc1ncc(-c2ccnc(Nc3ccncc3)n2)c(CC2CC2)n1 | 18.6 µM | 10.5 µM | 20.9 µM | 487 | 442 | 485 |
| Cc1cccc(Nc2nc(N[C@@H]3CCCC[C@@H]3N)ncc2C(N)=O)c1 | 18.6 µM | 26.3 µM | 26.3 µM | 496 | 476 | 546 |
| CCC(C)SSc1ncc[nH]1 (stereo unspecified) | 23.5 µM | 33.2 µM | 20.9 µM | 491 | 503 | 507 |
| Fc1cccc(-n2cnc3c(NCc4nc5ccc(F)c(F)c5[nH]4)nc(N4CCOCC4)nc32)c1 | 1.05 µM | 0.661 µM | 0.742 µM | 394 | 367 | 371 |
| COc1cc2c(Nc3ccc(Cl)c(Cl)c3F)ncnc2cc1OC[C@@H]1C[C@@H]2CN(C)C[C@@H]2C1 | 16.6 µM | 16.6 µM | 10.5 µM | 483 | 397 | 515 |
| CCN1CCN(C(=O)Cc2ccc(Nc3ncc(F)c(Nc4ccc(C(=O)Nc5ccccc5Cl)cc4)n3)cc2)CC1 | 7.42 µM | 9.34 µM | 8.33 µM | 389 | 412 | 490 |
| C[C@@H](NC(=O)c1ncnc(N)c1Cl)c1ncc(C(=O)Nc2cc(C(F)(F)F)c(Cl)cn2)s1 | 18.6 µM | 18.6 µM | 18.6 µM | 318 | 295 | 316 |
| COc1cc(N2CCC(N3CCN(C)CC3)CC2)ccc1Nc1ncc(Cl)c(Nc2ccccc2[S+](=O)([O-])C(C)C)n1 | 2.95 µM | 11.8 µM | 5.25 µM | 432 | 436 | 479 |
| Cn1cc(-c2ccc([S+](=O)([O-])n3ccc(/C=C/C(=O)Nc4ccccc4N)c3)cc2)cn1 | 5.25 µM | 13.2 µM | 9.34 µM | 352 | 377 | 464 |
| CCN(CC)CCOC1=CC=C(NC2=NC=C3\C=C(/C(=O)N(C)C3=N2)C4=C(Cl)C=CC=C4Cl)C=C1 | 4.17 µM | 7.42 µM | 7.42 µM | 461 | 436 | 511 |
| COc1cc(C(=O)NC2CCN(C)CC2)c(F)cc1Nc1ncc2c(n1)N(C1CCCC1)CC(F)(F)C(=O)N2C | 4.68 µM | 16.6 µM | 14.8 µM | 400 | 412 | 393 |
